Patent US20200297725A1, “ALLOSTERIC BCR-ABL PROTEOLYSIS TARGETING CHIMERIC COMPOUNDS” (YALE UNIVERSITY, priority 2019, published 2020)
pIC50: −log10 of the molar value. Entries after “also recorded” stand apart in the source; their conditions may differ. Read-outs that look alike come from different tables or passages of the source. Each block holds one compound with its values, some of them ahead of it.

How the values were obtained:
[1] = test system: K562 cells; experiment: K562 cell proliferation assay; assay type: cell-based; settings: Homo sapiens
Description: (§1) Cell lines and patient samples were exposed to dose ranges of single or combination agents and incubated for 3 days at 37° C., 5% CO2 and subjected to a CellTiter 96 AQueous One solution cell proliferation assay (Promega). IC50 values calculated and analyzed using Prism 6 software (GraphPad).

[2] = test system: Ba/F3 BCR-ABL1 T315I cells; experiment: Cell proliferation of Ba/F3 cells expressing BCR-ABL1 T315I; assay type: cell-based, murine; settings: versus wild-type BCR-ABL1
Description: as §1

[3] = test system: BCR-ABL1 transformed Ba/F3 cells; experiment: Cell proliferation of BCR-ABL1 transformed Ba/F3 cells (MTS); assay type: cell-based, murine
Description: as §1
Plates were incubated at 37° C. for 72 h and analyzed by standard MTS-based colorimetric assay. Non-linear regression curve-fit analysis and IC50 calculations were performed using Graphpad Prism software.

[4] = target: T1, BCR-ABL1 (Homo sapiens, UniProt P00519); experiment: BCR-ABL1 / c-ABL1 degradation in K562 cells by immunoblot; assay type: cell-based; parameters: K562 cell lines were purchased from ATCC; BCR N-terminal portion (fusion partner, human BCR P11274); host or cells: K562; the other entry of the earlier key: BCR (P11274, Breakpoint cluster region protein); settings: for DC50 / BCR-Abl and c-Abl levels on co-treatment with GMB-805 (Compound 19) / BCR-ABL1 and c-ABL1 levels on co-treatment with Compound 10: K562 cells; for BCR-Abl and c-Abl levels on co-treatment with GMB-805 (Compound 19): 1 μM GMB-805, 8 hours; for BCR-ABL1 and c-ABL1 levels on co-treatment with Compound 10: 8 hour treatment, compared to Compound 10 alone
Description: The cells were collected at 300 g for 3 min. […] The total protein concentrations were determined by Pierce BCA Protein Assay and 30-50 μg of protein was loaded onto 10% Tris-Glycine gels. After standard gel electrophoresis, the separated proteins were transferred to nitrocellulose by wet transfer. The immunoblots were then processed by standard procedures and incubated with the respective antibodies. Band intensities were quantified by Bio-Rad's Image Lab software.
Gels were transferred and then blocked in TBS-Tween buffer with 5% BSA. […] Following incubation with appropriate HRP-conjugated secondary antibodies, membranes were imaged on a BioRad ChemiDoc using BioRad Clarity Western ECL substrate and Thermo Super Signal West Femto Maximum Sensitivity substrate.
(§2) Following centrifugation at 13,000×g for 15 minutes at 4° C. to pellet insoluble materials, the protein concentrations of the supernatants were quantitated by BCA assay (Thermo Fisher Scientific). Protein samples were resolved by SDS-PAGE, transferred to nitrocellulose, blocked with 5% non-fat milk and probed with the marked antibodies. Immunoblots were developed using enhanced chemiluminescence and visualized using a Bio-Rad Chemi-Doc MP Imaging System with Image Lab v.5.2.1 software (Bio-Rad Laboratories).
Target sequence in this assay (P00519 with tags, fused parts or gaps): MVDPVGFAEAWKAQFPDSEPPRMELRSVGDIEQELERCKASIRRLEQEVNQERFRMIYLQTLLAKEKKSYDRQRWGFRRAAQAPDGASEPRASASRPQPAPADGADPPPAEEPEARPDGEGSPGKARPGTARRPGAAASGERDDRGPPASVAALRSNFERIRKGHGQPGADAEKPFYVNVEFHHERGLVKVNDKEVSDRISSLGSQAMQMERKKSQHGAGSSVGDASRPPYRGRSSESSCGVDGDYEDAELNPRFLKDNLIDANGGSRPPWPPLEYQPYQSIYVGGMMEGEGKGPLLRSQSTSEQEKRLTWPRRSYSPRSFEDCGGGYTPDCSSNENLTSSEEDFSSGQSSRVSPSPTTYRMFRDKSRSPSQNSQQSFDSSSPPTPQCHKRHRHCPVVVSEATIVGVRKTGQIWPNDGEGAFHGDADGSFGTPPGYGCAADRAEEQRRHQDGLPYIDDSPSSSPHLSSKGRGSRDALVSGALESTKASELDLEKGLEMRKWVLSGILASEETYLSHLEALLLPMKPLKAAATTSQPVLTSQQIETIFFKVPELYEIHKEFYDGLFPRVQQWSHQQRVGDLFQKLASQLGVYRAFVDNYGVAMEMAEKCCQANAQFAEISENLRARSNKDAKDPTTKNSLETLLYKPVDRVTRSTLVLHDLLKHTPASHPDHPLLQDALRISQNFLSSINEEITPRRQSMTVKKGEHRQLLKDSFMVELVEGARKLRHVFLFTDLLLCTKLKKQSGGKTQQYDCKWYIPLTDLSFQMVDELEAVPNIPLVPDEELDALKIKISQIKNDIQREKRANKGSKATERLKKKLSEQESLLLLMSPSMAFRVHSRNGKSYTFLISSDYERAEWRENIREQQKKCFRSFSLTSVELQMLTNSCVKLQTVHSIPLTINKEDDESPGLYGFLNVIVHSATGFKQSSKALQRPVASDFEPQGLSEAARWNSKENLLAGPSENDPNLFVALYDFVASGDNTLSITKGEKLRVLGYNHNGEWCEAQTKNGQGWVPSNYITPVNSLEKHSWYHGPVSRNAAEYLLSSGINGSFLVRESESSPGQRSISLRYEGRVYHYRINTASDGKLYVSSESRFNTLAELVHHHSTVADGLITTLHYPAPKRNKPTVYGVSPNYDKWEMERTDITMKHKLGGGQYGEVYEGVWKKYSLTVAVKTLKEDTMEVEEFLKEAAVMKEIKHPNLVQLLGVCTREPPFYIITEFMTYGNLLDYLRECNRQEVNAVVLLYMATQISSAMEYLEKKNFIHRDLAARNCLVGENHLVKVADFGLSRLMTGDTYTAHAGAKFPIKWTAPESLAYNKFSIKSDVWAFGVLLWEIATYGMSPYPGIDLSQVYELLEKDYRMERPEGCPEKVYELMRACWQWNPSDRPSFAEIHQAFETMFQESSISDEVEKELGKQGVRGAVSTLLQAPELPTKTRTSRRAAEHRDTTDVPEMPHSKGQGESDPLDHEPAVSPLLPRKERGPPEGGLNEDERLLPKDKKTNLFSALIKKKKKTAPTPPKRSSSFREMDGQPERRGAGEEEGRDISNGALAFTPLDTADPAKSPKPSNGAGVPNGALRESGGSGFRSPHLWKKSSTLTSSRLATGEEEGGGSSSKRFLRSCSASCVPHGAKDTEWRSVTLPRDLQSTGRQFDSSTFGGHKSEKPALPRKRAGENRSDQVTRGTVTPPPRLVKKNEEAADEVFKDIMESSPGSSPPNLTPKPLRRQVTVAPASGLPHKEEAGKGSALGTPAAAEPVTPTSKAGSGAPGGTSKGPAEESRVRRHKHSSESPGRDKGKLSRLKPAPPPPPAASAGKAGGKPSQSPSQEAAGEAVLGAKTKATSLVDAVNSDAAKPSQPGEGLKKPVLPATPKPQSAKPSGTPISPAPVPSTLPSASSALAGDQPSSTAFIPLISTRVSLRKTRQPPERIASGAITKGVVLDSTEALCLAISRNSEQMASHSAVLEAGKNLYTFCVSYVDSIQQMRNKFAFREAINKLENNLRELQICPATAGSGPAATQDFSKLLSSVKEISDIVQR

[5] = target: T1, BCR-ABL1; experiment: BCR-ABL1 signaling and scaffolding in K562 cells (RPPA, immunoblot); assay type: cell-based; parameters: K562 cell lines were purchased from ATCC; BCR N-terminal portion (fusion partner, human BCR P11274); host or cells: K562; the other entry of the earlier key: BCR (P11274, Breakpoint cluster region protein)
Source text: (§3) Samples were lysed in 1× Cell Signaling lysis buffer (#9803S) supplemented with PMSF and complete mini tablets (Sigma #11836153001). Lysates were quantified and separated on 4-15% Tris-glycine polyacrylamide gels. Gels were transferred and then blocked in TBS-Tween buffer with 5% BSA. The following primary antibodies were used: tABL, BD #554148 anti-mouse 1:400; c-ABL1, SantaCruz #24-11 anti-mouse 1:1000; B-tubulin, Millipore #05-66-MI anti-mouse 1:5000; pSTAT5, # CS9351S anti-rabbit 1:1000 pSTAT5, # CS4322 anti-rabbit 1:1000; pBCR-Abl, # CS2865 anti-rabbit 1:1000; pCRKL, # CS491 anti-rabbit 1:1000; pAKT, # CS4060 anti-rabbit 1:1000; pERK, # CS4695 anti-rabbit 1:1000; pSHP-2, Abcam #62322 anti-rabbit 1:1000; pGAB1, # CS3233 anti-rabbit 1:1000; pGAB2, # CS3882 anti-rabbit 1:1000; pSHC, # CS2434 anti-rabbit 1:1000; VHL, # CS68547 anti-rabbit 1:1000; pCRKL, # CS3181S anti-rabbit 1:1000. Following incubation with appropriate HRP-conjugated secondary antibodies, membranes were imaged on a BioRad ChemiDoc using BioRad Clarity Western ECL substrate and Thermo Super Signal West Femto Maximum Sensitivity substrate.
RPPA was performed in the MDACC CCSG core as described at http://www.mdanderson.org/education-and-research/resources-for-professionals/scientific-resources/core-facilities-and-services/functional-proteomics-rppa-core/index.html.
as §2, with “K562 cells were treated with the indicated concentrations of compound for 24 hours, washed with PBS and then harvested in lysis buffer (50 mM Tris (pH 7.4), 150 mM NaCl, 1 mM EDTA, 0.5% NP-40, phosphatase and protease inhibitors). Following” for “Following”
Target sequence in this assay (P00519 with tags, fused parts or gaps): as above

[6] = target: T1, BCR-ABL1; experiment: Immunoblot of co-treatment with ponatinib in Ba/F3 BCR-ABL1 wild-type cells; assay type: cell-based, murine; parameters: BCR N-terminal portion (fusion partner, BCR P11274); expressed in transfected cells; the other entry of the earlier key: BCR (P11274, Breakpoint cluster region protein); settings: overnight co-treatment with ponatinib
Source text: as §3
Target sequence in this assay (P00519 28-1130 limits assumed): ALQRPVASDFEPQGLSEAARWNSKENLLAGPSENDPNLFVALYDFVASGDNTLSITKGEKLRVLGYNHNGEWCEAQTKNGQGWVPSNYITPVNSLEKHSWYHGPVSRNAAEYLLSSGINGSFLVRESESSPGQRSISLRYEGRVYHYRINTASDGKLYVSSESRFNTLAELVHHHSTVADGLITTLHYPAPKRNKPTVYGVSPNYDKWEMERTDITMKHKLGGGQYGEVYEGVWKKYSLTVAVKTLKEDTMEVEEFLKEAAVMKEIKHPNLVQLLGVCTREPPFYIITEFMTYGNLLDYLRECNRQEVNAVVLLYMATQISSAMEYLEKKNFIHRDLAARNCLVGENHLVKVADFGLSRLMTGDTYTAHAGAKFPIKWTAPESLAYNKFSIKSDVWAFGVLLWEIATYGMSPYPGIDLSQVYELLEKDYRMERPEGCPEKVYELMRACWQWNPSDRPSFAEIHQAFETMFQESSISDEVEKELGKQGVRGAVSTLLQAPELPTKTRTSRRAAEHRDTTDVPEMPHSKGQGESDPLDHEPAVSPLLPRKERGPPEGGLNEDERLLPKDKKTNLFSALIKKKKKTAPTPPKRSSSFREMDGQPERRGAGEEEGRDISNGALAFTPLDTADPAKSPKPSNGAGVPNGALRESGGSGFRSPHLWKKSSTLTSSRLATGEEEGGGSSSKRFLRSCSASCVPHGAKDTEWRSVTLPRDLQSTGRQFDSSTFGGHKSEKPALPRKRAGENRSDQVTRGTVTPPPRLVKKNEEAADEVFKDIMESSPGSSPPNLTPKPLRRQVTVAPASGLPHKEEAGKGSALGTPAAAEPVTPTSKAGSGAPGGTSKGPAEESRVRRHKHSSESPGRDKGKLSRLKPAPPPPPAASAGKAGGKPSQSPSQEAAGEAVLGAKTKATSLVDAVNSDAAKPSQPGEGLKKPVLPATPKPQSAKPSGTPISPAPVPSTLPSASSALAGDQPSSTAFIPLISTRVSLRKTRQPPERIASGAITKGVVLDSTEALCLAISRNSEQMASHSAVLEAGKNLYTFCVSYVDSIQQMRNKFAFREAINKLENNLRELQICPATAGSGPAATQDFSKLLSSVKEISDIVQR

[7] = test system: primary CML CD34+ patient cells; experiment: Proliferation of primary CML patient CD34+ cells; assay type: cell-based, human; settings: CD34+ cells from newly diagnosed CML patients
Description: as §1

[8] = target: T1, BCR-ABL1; experiment: BCR-ABL1 degradation in primary patient LSCs (CD34+CD38-) by immunoblot; assay type: cell-based; parameters: induce degradation of both BCR-ABL1 and ABL1 in primary patient LSCs; BCR N-terminal portion (fusion partner, human BCR P11274); endogenous in cells; host or cells: primary CML patient CD34+/CD38- cells (patient 1); the other entry of the earlier key: BCR (P11274, Breakpoint cluster region protein); settings: CD34+/CD38- cells, patient 1, overnight
Description: MNCs isolated from specimens via ficoll, then selected for CD34+ by MACs column. Frozen viables were thawed and cultured in IMDM+40 ug/mL LDL+20% FBS+100 uM BME overnight. Sorted using FACS Aria III, stained with CD34 (BD348801) and CD38 (BD555461).
Cells were lysed in Cell Signaling lysis buffer supplemented with PMSF and Complete Mini protease inhibitor tablets. Protein concentration assessed via BCA assay, ran on 4-15% tris-glycine polyacrylamide gel at 180V for 1 h, transferred overnight at 25V, blocked with 5% BSA in TBST for 1 h and incubated at 4 degree in following primary antibodies.
Target sequence in this assay (P00519 28-1130 limits assumed): as above

[9] = test system: Ba/F3 BCR-ABL1 G250E cells; experiment: Cell proliferation of Ba/F3 cells expressing BCR-ABL1 G250E; assay type: cell-based, murine; settings: versus wild-type BCR-ABL1
Description: as §1

[10] = test system: primary CML CD34+ patient cells; experiment: Apoptosis (Annexin V) in primary CML patient cells; assay type: cell-based, human; settings: patient 1; no appreciable difference between PROTAC and diastereomer control
Description: Mononuclear cells (MNCs) were isolated from either peripheral blood, bone marrow or leukapheresis samples by Ficoll gradient. MNCs were then treated with ammonium-chloride-potassium (ACK) lysis buffer to remove any residual red blood cells. […] For cell proliferation assays, samples were thawed and cultured in R10. For immunoblot assays, samples were thawed and cultured in IMDM with 40 μg/mL low-density lipoprotein (LDL, Stem Cell), 20% FBS, and 100 μM beta-mercaptaethanol (Sigma).
Sorted samples were recovered overnight in culture in IMDM with 40 μg/mL low-density lipoprotein (LDL, Stem Cell), 20% FBS, and 100 μM beta-mercaptaethanol (Sigma).

[11] = Pharmacokinetics in mouse; assay type: in vivo; settings: 10 mg/kg IP
Description: The pharmacokinetic properties were determined at Pharmaron, China. The exemplary compound was formulated (in 5% EtOH & 5% Solutol HS15 in D5W(ESD-2)) and administered by intraperitoneal (I.P.) injection at a dosing level of 10 mg/kg. Plasma samples were collected at 0.25 hours, 0.5 hours, 1 hour, 2 hours, 4 hours, 8 hours, and 24 hours following dosing.
Acetonitrile was added to precipitate protein and the samples were vortexed for 30 second, centrifuged (4000 rpm, 15 minutes), diluted with water and the compound concentration determined by LC/MS/MS according to a standard curve.

[12] = test system: K562 cells; experiment: K562 xenograft model in athymic mice; assay type: in vivo; settings: 200 mg/kg IP once every 24 hours, day 4-6
Description: K562 cells were implanted subcutaneously into the flank of athymic mice and tumors were allowed to develop to approx. 200 mm^3. Animals were then randomised into treatment or vehicle groups on day 1. On day 4-6, animals were either treated with exemplary compound GMB-805 (Compound 19; 200 mg/kg) or vehicle control by IP injection once every 24 hours.
All in vivo experiments were conducted in accordance with institutional guidelines and were approved by Yale Institutional Animal Care & Use Committee. Mice were housed in pathogen-free animal facilities and with access to food and water ad libitum. K562 cells in Matrigel (Corning Life Sciences) were injected subcutaneously into the flank of athymic mice (Charles River) and allowed to proliferate until tumors reached −200 mm^3 at which point mice were randomized into treatment groups and treated I.P. with vehicle or exemplary compound once a day at 200 mg/kg for 3 days. Tumors were measured via caliper and volumes calculated following equation:
where V=volume, L=Length and W=Width

[13] = test system: healthy donor CD34+ cells; experiment: Effect on healthy donor CD34+ cells; assay type: cell-based, human; settings: proliferation and apoptosis

pIC50 ([1]; FIG. 5B/D: K562 and Ba/F3 BCR-ABL1 cells, read-out: cell proliferation IC50): ~6.00
pIC50 ([3]; Mus musculus, BaF3, single agent, 72 h (FIG. 6A), read-out: IC50, dose response titration): 5.95
reduction of the IC50 of imatinib by co-treatment ([3]; co-treatment of imatinib with 2.5 μM Compound 10): ~3 fold
Dmax ([4]; K562, read-out: Dmax (%) [cell line]): 95%
DC50 ([4]; read-out: DC50): 0.34 µM
total ABL1 protein by RPPA ([5]; K562, 5 μM, 8 h): showed a decrease in total ABL1 protein
Structure (SMILES): Cc1ncsc1-c1ccc(CNC(=O)[C@@H]2C[C@@H](O)CN2C(=O)[C@@H](NC(=O)COCCOc2ccc(-c3cc(Nc4ccc(OC(F)(F)F)cc4)ncn3)cc2)C(C)(C)C)cc1 [Compound 10]
effect of T315I mutation on potency [2]: had little effect on the potency of Compound 10
degradation of BCR-ABL1 and c-ABL1 ([4]; K562 (FIG. 5A) and Ba/F3 (FIG. 5C) cells, dose- and time-dependent): induce the degradation of BCR-ABL1 and c-ABL1
phosphorylation of GAB2 and SHC ([5]; K562, full serum (10% FBS)): able to reduce phosphorylation of GAB2 and SHC
kinase activity of BCR-ABL1 (pBCR-ABL1 Tyr412, pSTAT-5) ([5]; K562, immunoblot, 8 h and 24 h): able to inhibit the kinase activity of BCR-ABL1
phosphorylation of GAB2, SHC and STAT5 ([5]; K562, serum-free): able to inhibit phosphorylation of GAB2 and SHC, as well as STAT5
effect of co-treatment with ponatinib (immunoblot) [6]: enhanced the ability of Compound 10 to induce degradation
potency at inhibiting proliferation relative to Compound 14 [7]: greater than 2 fold
degradation of BCR-ABL1 and ABL1 [8]: able to induce degradation of both BCR-ABL1 and ABL1
anti-proliferative activity against G250E mutant [9]: enhanced anti-proliferative activity
apoptosis in sorted progenitor (CD34+CD38+) and stem (CD34+CD38-) cells [10]: induced apoptosis in the progenitor cells and to a lesser extent in the stem cells

BCR-Abl and c-Abl levels on co-treatment with GMB-805 (Compound 19) [4]: able to rescue protein levels
Structure (SMILES): NS(=O)(=O)OC[C@@H]1C[C@@H](n2ccc3c(N[C@H]4CCc5ccccc54)ncnc32)C[C@@H]1O [MLN-4924, reference compound]
BCR-ABL1 and c-ABL1 levels on co-treatment with Compound 10 [4]: inhibited the degradation of BCR-ABL1 and ABL1

Structure (SMILES): Cc1ncsc1-c1ccc(CNC(=O)[C@@H]2C[C@@H](O)CN2C(=O)[C@@H](NC(=O)COCCNc2ncc(C(=O)Nc3ccc(OC(F)(F)Cl)cc3)cc2-c2ccn[nH]2)C(C)(C)C)cc1 [Compound 19]
pIC50 ([1]; K562 (FIG. 16B), read-out: antiproliferative activity IC50): 6.77
DC50 ([4]; extended dose response, 24 hours (FIG. 16A), read-out: DC50 (concentration at which half maximal degradation is observed)): 0.03 µM
Cmax [11]: well over above both the DC50 and IC50
toxicity or weight loss [12]: no toxicity or weight loss was observed; also recorded: induced no weight loss
tumor volume [12]: no significant increase in tumor volume

Structure (SMILES): Cc1ccc(NC(=O)c2ccc(CN3CCN(C)CC3)cc2)cc1Nc1nccc(-c2cccnc2)n1 [imatinib]
effect on healthy donor CD34+ cells [13]: had no effect on healthy donor CD34+ cells

Structure (SMILES): CC[C@H](C)[C@H](NC(=O)[C@H]([C@@H](C)CC)N(C)C(C)=O)C(=O)N[C@H](C(=O)N[C@@H](CC(C)C)C(=O)[C@@]1(C)CO1)[C@@H](C)O [epoxomicin, reference compound]
BCR-Abl and c-Abl levels on co-treatment with GMB-805 (Compound 19) [4]: restored protein concentration back to untreated levels
BCR-ABL1 and c-ABL1 levels on co-treatment with Compound 10 [4]: restored the levels of BCR-ABL1 and c-ABL1
